Values after ≈ are worked out from the molar mass of the structure shown. Where two headings read alike, the source gives them in different places.
Key:
[1] = test system: G. swidsinskii (Gv_23); experiment: MIC and MBC microbroth dilution; format: cell-based, Gardnerella swidsinskii; conditions: for MIC / MBC: Gardnerella swidsinskii; for MIC: 48 h
Protocol: (§1) One of the main deficiencies in the treatment of BV is the high rate of recurrence in many women, which leads to repeated administration of antibiotics and concomitant destabilization of the microbiome and other side effects. The minimal inhibitory concentration (MIC) and minimal bactericidal concentration (MBC) on Gardnerella cells of the strains also used for the endolysin activity assays were then measured using the method described in Reference Example 6 and 7. […] Essentially, Gardnerella suspensions at 2.5×10^7 CFU/ml were incubated with the concentration of antibiotics as indicated and incubated for 48 h at 37° C. under anaerobic conditions. […] OD(610) was measured at the beginning and the end of the experiment. At the end of the experiment, 2 ul of each reaction mix was spotted on agar to determine the MBC.
(§2) The conditions under which MIC and MBC were measured are more rigorous than the standard.
(§3) Example 7—Activity assays of a representative (H2B10) of domain swapped endolysins on the growth in suspension of different Gardnerella strains. […] The conditions under which MBC was measured are more rigorous than the standard. […] In general, it is known, that antibiotics only insufficiently eradicate the Gardnerella biofilm, a hallmark of BV, which is one suspected reason for the reported very high recurrence rate of BV. Despite leaving residual viable biofilm, antibiotics wipe parts of the beneficial organisms of the vaginal microbiome which then opens an ecological niche for other pathogens, e.g. fungi.
Bacteria were plated from cryo stock on BD Choc Agar plates (Gardnerella) and incubated at 37° C. for 48 h under anaerobic conditions. Colonies were scraped from the plate, resuspended in Hardy Broth or NYC-III-HS-pH 5.0, and the suspension adjusted to OD (610 or 620 nm as indicated) 0.05. It has to be noted that two Tecan Microplate readers, having respectively a 610 nm or 620 nm filter, have been used interchangeably in the experiments. Although it doesn't make any difference for the experiments, the exact wavelength used is specified in each example. Antibiotics were prepared as 20× stocks for each of the required final concentrations. 95 μl of cell suspension was mixed with 5 μl antibiotics dilution in a 384-well plate. OD (610-620 as indicated) at the start of the reaction was measured, then the plate was incubated at 37° C. for 48 h under anaerobic conditions. After that, the OD (610-620 as indicated) was measured again for MIC determination, where MIC was defined as the lowest concentration of antibiotic where the OD (610-620 as indicated) was not above the level measured at the beginning of the experiment. After measuring OD, 2 μl of each well were spotted on a NYC-III+HS Agar plate. The plates were then incubated for further 48 h at 37° C. under anaerobic conditions. After incubation, cell growth on each spot was evaluated, and the MBC defined as the lowest concentration of antibiotics where no bacteria grew on the plate. The experiments were conducted in triplicate for each condition. In the second round of MIC and MBC experiments with antibiotics the Gardnerella cell suspension was adjusted to the McFarland standard 0.5 (approximately OD (610) 0.07) and then diluted 1:75 according to the CLSI (Clinical and Laboratory Standards Institute) standards. Antibiotics were prepared according to the CLSI standards and 50 μl of cell suspension was mixed in a 96-well plate with 50 μl antibiotics. Otherwise the MIC and MBC was determined as described above.

[2] = test system: all tested Gardnerella strains; experiment: MIC and MBC microbroth dilution, stated over all tested strains; format: cell-based; conditions: for MIC: Gardnerella
Protocol: as §1, §2, §3
Bacteria were plated from cryo stock on BD Choc Agar plates (Gardnerella) and incubated at 37° C. for 48 h under anaerobic conditions. Colonies were scraped from the plate, resuspended in Hardy Broth or NYC-III-HS-pH 5.0, and the suspension adjusted to OD (610 or 620 nm as indicated) 0.05. It has to be noted that two Tecan Microplate readers, having respectively a 610 nm or 620 nm filter, have been used interchangeably in the experiments. Although it doesn't make any difference for the experiments, the exact wavelength used is specified in each example. Antibiotics were prepared as 20× stocks for each of the required final concentrations. […] OD (610-620 as indicated) at the start of the reaction was measured, then the plate was incubated at 37° C. for 48 h under anaerobic conditions. After that, the OD (610-620 as indicated) was measured again for MIC determination, where MIC was defined as the lowest concentration of antibiotic where the OD (610-620 as indicated) was not above the level measured at the beginning of the experiment. […] After incubation, cell growth on each spot was evaluated, and the MBC defined as the lowest concentration of antibiotics where no bacteria grew on the plate.

Q: How did the MIC ([1]; first round: […]10^7 CFU/ml, Hardy broth, 384-well, 48 h 37° C. anaerobic) turn out when Cc1ncc([N+](=O)[O-])n1CCO [Metronidazole] was run?
A: > 128 µg/mL

Q: And the MIC ([1]; second round: 1×10^5-1×10^6 CFU/ml (CLSI), NYC-III broth, 96-well, 48 h anaerobic)?
A: 32 µg/mL (≈ 187 µM)

Q: And the MBC ([1]; second round: 1×10^5-1×10^6 CFU/ml (CLSI), NYC-III broth, 96-well)?
A: > 128 µg/mL

Q: And the MBC ([1]; first round: 2.5×10^7 CFU/ml, minimal concentration fully eradicating the suspension)?
A: > 128 µg/mL

Q: And the “resistance class of MIC, Metronidazole” value ([1]; first round)?
A: R (>=32 μg/mi for Metronidazole)

Q: What about the “resistance class given with MBC, Metronidazole” value ([1]; second round) of the same compound?
A: R (>=32 μg/mi for Metronidazole)

Q: What about the “resistance class printed with MIC, Metronidazole” value ([1]; second round) of the same compound?
A: R (>=32 μg/mi for Metronidazole)

Q: What about the MIC ([2]; 48 h, first round: […]10^7 CFU/ml, 48 h anaerobic (FIG. 14), read-out: MIC over all Gardnerella strains) of the same compound?
A: 64 to 128 µg/mL (≈ 374 to 748 µM)

Q: What about the MIC ([2]; second round: 1×10^5-1×10^6 CFU/ml (FIG. 15), read-out: MIC over all tested Gardnerella strains) of the same compound?
A: 8 to 128 µg/mL (≈ 46.7 to 748 µM)

Q: And the “susceptibility of the Gardnerella strains, in words” value ([2]; MIC microbroth dilution)?
A: resistant
